Residue numbers refer to the chain shown, from its start.
Columns and labels:
[1] = molecular target: T1, human EP1 receptor of the present invention (Homo sapiens, UniProt P34995); assay: Measurement of intracellular Ca2+ concentration in cells expressing human EP1 receptor of the present invention; assay type: cell-based; conditions: Fura2-AM fluorescence
T1 construct: The cDNA insert was cut off from pT7BluehEP1 by EcoR1 digestion, and inserted into EcoR1 site of expression vector pdKCR-dhfr; expressed in transfected cells; A1 used their membrane fraction, A3 used whole cells
T1 sequence (P34995 1-402): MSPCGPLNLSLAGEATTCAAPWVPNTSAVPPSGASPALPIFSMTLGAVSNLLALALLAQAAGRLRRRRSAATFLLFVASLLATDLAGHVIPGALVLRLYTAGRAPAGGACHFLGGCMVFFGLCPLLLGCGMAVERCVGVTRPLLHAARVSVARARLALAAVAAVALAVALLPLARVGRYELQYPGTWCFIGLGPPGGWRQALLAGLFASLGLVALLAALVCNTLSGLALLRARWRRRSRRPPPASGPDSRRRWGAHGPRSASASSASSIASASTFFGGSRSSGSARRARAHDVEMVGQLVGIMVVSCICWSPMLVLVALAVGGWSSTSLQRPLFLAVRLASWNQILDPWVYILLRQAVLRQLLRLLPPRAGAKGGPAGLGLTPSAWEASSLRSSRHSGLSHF
Experimental: (§1) The cells were cultured in 500 cm^2 treys to reach confluence, washed with PBS(−), and peeled off by pipeting with PBS(−) on ice. After centrifugation at 800 rpm for 3 minutes, the cell pellet was suspended in medium A (15 ml) and incubated at 37° C. for 50 minutes followed by at room temperature for 10 minutes. After re-centrifugation the pellet was suspended in medium B (1-2×10^6/ml) and used for experiments. In the case that cell suspension contains Fura2-AM (Dojin), the operations were shielded the light by aluminum foil. Stirring the cell suspensions (400 μl) at 600 rpm, the changes of intracellular Ca^2+ concentration were measured by monitoring the changes of fluorescence intensity at both 340 nm and 380 nm and the ratio thereof, using CAM-220 Spectrofluorometer (Nihon Bunko Kogyo).
(§2) Medium A: • α-MEM containing fura2-AM (5 μM)), indomethacin (10 μM), HEPES-NaOH (pH7.4, 10 mM) and 10% FCS,
(§3) Medium B: • α-MEM containing indomethacin (1 μM), HEPES-NaOH (pH7.4, 10 mM) and 0.1% BSA.
(§4) The changes in intracellular Ca^2+ concentration using the cells expressing human EP1 receptor of the present invention and the cells expressing human EP1 receptor described in Japanese Patent No. 3,090,472 were shown in FIG. 3. In FIG. 3, “reference” means the result obtained by using the cells expressing human EP1 receptor described in Japanese Patent No. 3,090,472.

[2] = molecular target: T2, human EP1 receptor described in Japanese Patent No. 3,090,472 (Homo sapiens, UniProt P34995, A71T/L230H); assay: Measurement of intracellular Ca2+ concentration in cells expressing human EP1 receptor described in Japanese Patent No. 3,090,472; assay type: cell-based; conditions: cells expressing human EP1 receptor of Japanese Patent No. 3,090,472 (reference); Fura2-AM fluorescence
T2 construct: expressed in transfected cells; host or cells: cells expressing the receptor of JP 3,090,472
T2 sequence (P34995 1-402 A71T/L230H): T1 sequence (P34995 1-402) with A71T, L230H
Experimental: as §1, §2, §3, §4

[3] = molecular target: T1, human EP1 receptor of the present invention; assay: Binding assay of [3H]-PGE2 with membrane fraction of CHO cells expressing human EP1 receptor of the present invention; conditions: nonspecific binding with 10 μM PGE2
Experimental: 1) Gene Transfection into CHO Cells and Isolation of Clones Expressing Human EP1 Receptor
The cDNA insert was cut off from pT7BluehEP1 by EcoR1 digestion, and inserted into EcoR1 site of expression vector pdKCR-dhfr in the proper orientation. Approximately 25-50 ug of expression plasmid was digested completely with proper restriction enzymes (SalI, SacII etc.), purified by Phenol/CIAA extraction, CIAA extraction and ethanol precipitation, and dissolved in 50 μl of sterilized water. CHO-dhfr(−) cells used as host were suspended in 1.0-1.5×10^6 cells/0.8 ml of PBSuc buffer (sucrose 272 mM, K^+PO4^2− buffer (7 mM, pH7.4) and MgCl2 (1 mM)). […]
Reaction mixtures (200 μl) containing the membrane fraction, which was prepared by the above method and contains human EP1 receptor, and various concentrations of [3H]-PGE2 were incubated at room temperature for a certain time, separated by rapid filtration using Cell Harvester (Brandel). […] Residual [3H]-PGE2 bound to the filter (total binding) was quantitated by liquid scintillation counter. Nonspecific binding was quantitated in a similar manner in the presence of 10 μM of PGE2. […]
The specific binding thus obtained was analyzed by Scatchard plots, an equilibrium dissociation constant (Kd; nM) and a maximum number of specific binding sites (Bmax; fmol/mg protein) were determined. […]

[4] = molecular target: T2, human EP1 receptor described in Japanese Patent No. 3,090,472; assay: Binding assay of [3H]-PGE2 with cells expressing human EP1 receptor described in Japanese Patent No. 3,090,472; conditions: cells expressing human EP1 receptor of Japanese Patent No. 3,090,472 (reference)
Experimental: Reaction mixtures (200 μl) containing the membrane fraction, which was prepared by the above method and contains human EP1 receptor, and various concentrations of [3H]-PGE2 were incubated at room temperature for a certain time, separated by rapid filtration using Cell Harvester (Brandel). The membrane fraction was recovered on glass filter and washed several times with the buffer cooled on ice (1-2 ml/wash). Residual [3H]-PGE2 bound to the filter (total binding) was quantitated by liquid scintillation counter. Nonspecific binding was quantitated in a similar manner in the presence of 10 μM of PGE2. Specific binding was defined as the difference between total binding and nonspecific binding.
The specific binding thus obtained was analyzed by Scatchard plots, an equilibrium dissociation constant (Kd; nM) and a maximum number of specific binding sites (Bmax; fmol/mg protein) were determined. The result obtained using the cells expressing human EP1 of the present invention was shown in FIG. 1, and the result obtained using the cells expressing human EP1 described in Japanese Patent No. 3,090,472 in FIG. 2, respectively.

## CCCCC[C@H](O)/C=C/[C@H]1[C@H](O)CC(=O)[C@@H]1C/C=C\CCCC(=O)O [PGE2, prostaglandin E2]
[1]
  PGE2 dependent elevation of intracellular Ca2+ concentration: detected
[2]
  PGE2 dependent elevation of intracellular Ca2+ concentration: not detected at all

## CCCCC[C@H](O)/C=C/[C@H]1[C@H](O)CC(=O)[C@@H]1C/C=C\CCCC(=O)O [[^3H]-PGE2]
[3]
  specific binding of [3H]-PGE2 to the receptor: extremely high specific binding
[4]
  specific binding of [3H]-PGE2 to the receptor: detected

— patent US7608411B2, “Prostaglandin receptor EP1” (Ono Pharmaceutical Co., Ltd., priority 2001, dated 2009)
